Paper PMC7966987, “Insights into the catalytic properties of the mitochondrial rhomboid protease PARL” (The Journal of Biological Chemistry, 2021)
Residues, ends and D or L forms follow the SMILES beside them.

Tests used:
Rhomboid-1 = conditions: cited from earlier work
Description: (§1) Rhomboids were initially discovered to be serine proteases because the first identified rhomboid protease from Drosophila, Rhomboid-1, was sensitive to serine protease inhibitors dichloroisocoumarin (DCI) and tosyl phenylalanyl chloromethylketone (TPCK) ([44]).

PARLΔ77 [1] = biological target: T1, PARLΔ77 (Homo sapiens, UniProt Q9H300); assay: Inhibition by commercial serine protease inhibitors, PARLΔ77 in proteoliposomes; type: biochemical; conditions: 100 μM inhibitor, in PL, IQ-PINK1 and IQ-PGAM5 substrates, N=3
T1 construct: GFP-hexahistidine (behind a TEV cleavage site) (C, cleaved yes); made in house; host or cells: Pichia pastoris
T1 sequence (Q9H300 78-379): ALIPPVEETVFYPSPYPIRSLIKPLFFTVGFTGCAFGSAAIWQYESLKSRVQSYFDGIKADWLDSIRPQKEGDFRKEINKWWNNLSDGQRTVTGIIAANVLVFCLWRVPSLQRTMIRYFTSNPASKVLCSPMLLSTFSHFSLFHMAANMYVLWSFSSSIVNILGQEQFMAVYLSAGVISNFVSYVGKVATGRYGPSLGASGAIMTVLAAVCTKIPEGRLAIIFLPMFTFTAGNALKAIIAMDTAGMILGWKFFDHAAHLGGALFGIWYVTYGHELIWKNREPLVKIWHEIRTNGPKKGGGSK
Method: (§2) We examined whether inhibitors belonging to three standard serine protease inhibitors families—sulfonyl fluoride (PMSF), chloromethyl ketone (TPCK), and coumarin (DCI)—were able to inhibit PARL when tested with IQ-PINK1 and IQ-PGAM5 substrates. […] Overall this supports the view that for PARL, specific inhibitors will need to be developed similar to bacterial rhomboid proteases ([48], [49]).
The activity assay with PARL reconstituted in PL was performed the same way as for PARL in DDM with the only difference being the activity buffer, where DDM was omitted (50 mM Tris-HCl pH 7.0, 150 mM NaCl, 10% glycerol). For inhibitory studies, PARL in PL (0.8 μM) was incubated with inhibitors (20 μM) in activity buffer for 30 min, and then the proteolytic reaction was started with the addition of substrate (5 μM). […]
(§3) inhibitors. Bar graphs for percent activity of detergent solubilized (A) and proteoliposome reconstituted (B) PA R L Δ77with100µMofinhibitoradded prior to the addition of IQ-PINK1 and IQ-PGAM5 substrates. Experiments were conducted in duplicate with an N=3.
(§4) Individual data points (black dots) are indicated on the bar graphs, representing the mean […]

PARLΔ77 [2] = biological target: T1, PARLΔ77; assay: Inhibition by commercial serine protease inhibitors, PARLΔ77 in detergent; type: biochemical; conditions: 100 μM inhibitor, IQ-PINK1 and IQ-PGAM5 substrates, N=3
Description: as §2, with “[49]). […]” for “[49]).”
as §3, §4

PARLΔ77 [3] = biological target: T1, PARLΔ77; assay: Competition assay, IQ-Smac/Diablo(51-60) cleavage in presence of PINK1(89-111); type: biochemical; conditions: read-out: Ki (Kd represented by Ki of the PARL-PINK1(89-111) complex)
Description: (§5) To determine if substrates bind to the same site, we performed competition binding assays using fluorescent IQ-PGAM5^20–29 and IQ-Smac/Diablo^51–60 as the main substrates and nonfluorescent PINK1^89–111 (^89[…]^111) as a competing substrate (Fig. 4). The longer version of substrate was used in this assay in order to reveal possible exosite interactions of substrate with PARL, assuming that regions surrounding the cleavage site might be involved in a primary substrate binding with a putative exosite.
(§6) Fluorescence detection of each substrate concentration in the presence of corresponding PINK189-111 without enzyme was used as a negative control. Initial velocities were determined for each substrate concentration. Michaelis–Menten plots were subjected to global fit to distinguish the kinetic model and determine the kinetic parameters. Values are represented as mean ± SEM (N = 3). […] The only names printed in the panels are the substrates on the x-axis, and KM and kcat are assigned to them.
(§7) The Michaelis–Menten curves of PARL-mediated cleavage of IQ-PGAM5^20–29 and IQ-Smac/Diablo^51–60 were obtained in the presence of different concentrations of PINK1^89–111.

PARLΔ77 [4] = biological target: T1, PARLΔ77; assay: Competition assay, IQ-PGAM5(20-29) cleavage in presence of PINK1(89-111); type: biochemical; conditions: read-out: Ki (Kd represented by Ki of the PARL-PINK1(89-111) complex)
Description: as §5, §6, §7

[5] = tested on: bacterial rhomboid proteases; conditions: cited from earlier work
Description: as §1

[6] = biological target: PARLΔ77 (β-cleavage form of human PARL) (human) (UniProt Q9H300); assay: competitive inhibition of FRET peptide cleavage (enzyme kinetics); PARLΔ77 0.8 μM; IQ-Smac/Diablo 51-60 (0.3–25 μM) as main substrate; nonfluorescent PINK1 89-111 at 2.5, 5, 10, 20 μM; Michaelis–Menten plots fitted globally, competitive model; Kd represented by Ki
[7] = biological target: PARLΔ77 (β-cleavage form of human PARL) (human) (UniProt Q9H300); assay: competitive inhibition of FRET peptide cleavage (enzyme kinetics); PARLΔ77 0.8 μM; IQ-PGAM5 20-29 (0.13-19 μM) as main substrate; nonfluorescent PINK1 89-111 at 2.5, 5, 10, 20 μM; Michaelis–Menten plots fitted globally, competitive model; Kd represented by Ki

Sequence of PARLΔ77 (β-cleavage form of human PARL) (human) (Q9H300 77-379, stated change not applied): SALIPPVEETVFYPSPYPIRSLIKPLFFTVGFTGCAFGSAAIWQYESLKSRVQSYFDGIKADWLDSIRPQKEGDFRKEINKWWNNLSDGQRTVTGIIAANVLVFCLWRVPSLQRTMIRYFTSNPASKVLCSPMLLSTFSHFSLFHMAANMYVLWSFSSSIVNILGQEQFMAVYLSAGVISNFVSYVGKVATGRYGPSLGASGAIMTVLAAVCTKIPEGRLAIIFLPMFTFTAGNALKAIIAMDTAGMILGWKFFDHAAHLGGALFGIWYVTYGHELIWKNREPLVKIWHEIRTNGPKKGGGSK

Row | Molecule | inhibition of Drosophila Rhomboid-1 (Rhomboid-1) | inhibition of PARL activity (PARLΔ77 [1]) | inhibition of PARL activity (PARLΔ77 [2]) | further results
1 | O=c1oc(Cl)c(Cl)c2ccccc12 [DCI, dichloroisocoumarin] | sensitive | largest inhibitory effect | largest inhibitory effect | –
2 | CC[C@H](C)[C@H](NC(=O)[C@H](CC(C)C)NC(=O)CNC(=O)[C@H](CC(C)C)NC(=O)CNC(=O)[C@H](CC(C)C)NC(=O)CNC(=O)[C@H](Cc1ccccc1)NC(=O)[C@H](C)NC(=O)[C@H](CC(C)C)NC(=O)[C@H](Cc1ccccc1)NC(=O)[C@@H](NC(=O)[C@H](C)NC(=O)[C@H](CCCNC(=N)N)NC(=O)CNC(=O)[C@H](CS)NC(=O)[C@@H]1CCCN1C(=O)CNC(=O)[C@H](C)NC(=O)[C@H](CS)NC(=O)CNC(=O)[C@H](Cc1c[nH]c2ccccc12)NC(=O)[C@H](C)NC(=O)[C@H](CO)NC(=O)CN)C(C)C)C(=O)O [PINK1^89–111] (H-GSAWGCAGPCGRAVFLAFGLGLGLI-OH) | – | – | – | Ki (PARLΔ77 [3]): 2.3 ± 0.7 µM; Ki (PARLΔ77 [4]): 2.4 ± 0.6 µM
3 | O=S(=O)(F)Cc1ccccc1 [PMSF] | – | not inhibited | not inhibited | inhibition of bacterial rhomboid proteases [5]: does not act on bacterial rhomboid proteases
4 | Cc1ccc(S(=O)(=O)N[C@@H](Cc2ccccc2)C(=O)CCl)cc1 [TPCK, tosyl phenylalanyl chloromethylketone] | sensitive | partially inhibits | partially inhibits | –
5 | AWGCAGPCGRAVFLAFGLGLGLI [PINK1 TM domain (amino acids 89–111), nonfluorescent] | – | – | – | Ki [6]: 2.3 µM; Ki [7]: 2.4 µM
